Here are results for 28 molecules from patent publication US11858941B2, “Heterocyclic and heteroaryl compounds for treating Huntington's disease” (PTC THERAPEUTICS, INC., priority 2018, dated 2024).

The assay relates to Endogenous Huntingtin Protein. The assay can be described thus: Endogenous Huntingtin Protein Assay (Meso Scale Discovery ELISA-based electrochemiluminescence). The class given is cell-based. The settings on record: MSD plates coated with MW1 (expanded polyglutamine) or MAB2166 capture antibody; lysates. The protocol:
Compounds of Formula (I) were tested using the Meso Scale Discovery (MSD) Assay provided in International Application No. PCT/US2016/066042, filed on Dec. 11, 2016 and claiming priority to United States Provisional Application U.S. 62/265,652 filed on Dec. 10, 2015, the entire contents of which are incorporated herein by reference.
The Endogenous Huntingtin Protein assay used in Example 1 was developed using the ELISA-based MSD electrochemiluminescence assay platform.
Endogenous Huntingtin Protein Assay
Meso Scale Discovery (MSD) 96-well or 384-well plates were coated overnight at 4° C. with MW1 (expanded polyglutamine) or MAB2166 monoclonal antibody (for capture) at a concentration of 1 μg/mL in PBS (30 μL per well). Plates were then washed three times with 300 μL wash buffer (0.05% Tween-20 in PBS) and blocked (100 μL blocking buffer; 5% BSA in PBS) for 4-5 hours at room temperature with rotational shaking and then washed three times with wash buffer.
Samples (25 μL) were transferred to the antibody-coated MSD plate and incubated overnight at 4° C. After removal of the lysates, the plate was washed three times with wash buffer, and 25 μL of #5656S (Cell signaling; rabbit monoclonal) secondary antibody (diluted to 0.25 μg/mL in 0.05% Tween-20 in blocking buffer) was added to each well and incubated with shaking for 1 Hour at room temperature. Following incubation with the secondary antibody, the wells were rinsed with wash buffer after which 25 μL of goat anti-rabbit SULFO TAG secondary detection antibody (required aspect of the MSD system) (diluted to 0.25 μg/mL in 0.05% Tween-20 in blocking buffer) was added to each well and incubated with shaking for 1 hour at room temperature. After rinsing three times with wash buffer, 150 μL of read buffer T with surfactant (MSD) were added to each empty well, and the plate was imaged on a SI 6000 imager (MSD) according to manufacturers' instructions provided for 96- or 384-well plates.
In general, IC50 refers to the concentration that gives 50% inhibition. Read a low IC50 as inhibition by little substance. For `CC1(C)CC(n2nnc3cc(-c4ccc(-c5ncc(O)cn5)cc4O)nnc32)CC(C)(C)N1` [Cpd 68, 2-{3-hydroxy-4-[3-(2,2,6,6-tetramethylpiperidin-4-yl)-3H-[1,2,3]triazolo[4,5-c]pyridazin-6-yl]phenyl}pyrimidin-5-ol], the concentration for half-maximal inhibition (IC50) is ≤ 100 nM. For the molecule `Cn1cnc(-c2ccc(-c3cc4nnn([C@H]5CC(C)(C)NC(C)(C)[C@H]5F)c4nn3)c(O)c2)cc1=O` [Cpd 172, 6-(4-{3-[(3S,4S)-3-fluoro-2,2,6,6-tetramethylpiperidin-4-yl]-3H-[1,2,3]triazolo[4,5-c]pyridazin-6-yl}-3-hydroxyphenyl)-3-methylpyrimidin-4(3H)-one], the half-maximal inhibitory concentration (IC50) was 100 to 500 nM. For `Oc1cc(-c2cn[nH]c2)ccc1-c1cc2[nH]cc(C3=CCNCC3)c2nn1` [Cpd 11, 5-(1H-pyrazol-4-yl)-2-[7-(1,2,3,6-tetrahydropyridin-4-yl)-5H-pyrrolo[3,2-c]pyridazin-3-yl]phenol] the value was 1000 to 3000 nM; for `CC1(C)CC(n2ccc3cc(-c4ccc(-n5nccn5)cc4O)nnc32)CC(C)(C)N1` [Cpd 176, 2-[7-(2,2,6,6-tetramethylpiperidin-4-yl)-7H-pyrrolo[2,3-c]pyridazin-3-yl]-5-(2H-1,2,3-triazol-2-yl)phenol], ≤ 100 nM; for `CNc1cc(-c2ccc(-c3cc4nnn(C5CC(C)(C)NC(C)(C)C5)c4nn3)c(O)c2)ccn1` [Cpd 104, 5-[2-(methylamino)pyridin-4-yl]-2-[3-(2,2,6,6-tetramethylpiperidin-4-yl)-3H-[1,2,3]triazolo[4,5-c]pyridazin-6-yl]phenol], ≤ 100 nM. For `Cn1cc(-c2ccc(-c3cc4nnn(C5CC(C)(C)NC(C)(C)C5)c4nn3)c(O)c2)c(F)n1` [Cpd 130, 5-(3-fluoro-1-methyl-1H-pyrazol-4-yl)-2-[3-(2,2,6,6-tetramethylpiperidin-4-yl)-3H-[1,2,3]triazolo[4,5-c]pyridazin-6-yl]phenol] the value was ≤ 100 nM.

Regarding `CC1(C)CC(n2nnc3cc(-c4ccc(-c5cc(=O)[nH]cn5)cc4O)nnc32)CC(C)(C)N1` [Cpd 128, 6-{3-hydroxy-4-[3-(2,2,6,6-tetramethylpiperidin-4-yl)-3H-[1,2,3]triazolo[4,5-c]pyridazin-6-yl]phenyl}pyrimidin-4(3H)-one], the IC50 was ≤ 100 nM.

Consider `CC1(C)CC(n2nnc3cc(-c4cc(F)c(-c5ccncc5)cc4O)nnc32)CC(C)(C)N1` [Cpd 87, 4-fluoro-5-(pyridin-4-yl)-2-[3-(2,2,6,6-tetramethylpiperidin-4-yl)-3H-[1,2,3]triazolo[4,5-c]pyridazin-6-yl]phenol], for which the IC50 fell in the range of 100 to 500 nM. Then `Cn1ncc(-c2ccc(-c3cc4nnn(C5CC(C)(C)NC(C)(C)C5)c4nn3)c(O)c2)c1F` [Cpd 121, 5-(5-fluoro-1-methyl-1H-pyrazol-4-yl)-2-[3-(2,2,6,6-tetramethylpiperidin-4-yl)-3H-[1,2,3]triazolo[4,5-c]pyridazin-6-yl]phenol], with ≤ 100 nM; and `CC1(C)CC(n2nnc3cc(-c4ccc(-c5ccc6nccn6n5)cc4O)nnc32)CC(C)(C)N1` [Cpd 162, 5-(imidazo[1,2-b]pyridazin-6-yl)-2-(3-(2,2,6,6-tetramethylpiperidin-4-yl)-3H-[1,2,3]triazolo[4,5-c]pyridazin-6-yl)phenol], with ≤ 100 nM; and `CC1(C)CC(n2nnc3cc(-c4ccc(-n5nccn5)cc4O)nnc32)CC(C)(C)N1` [Cpd 163, 2-[3-(2,2,6,6-tetramethylpiperidin-4-yl)-3H-[1,2,3]triazolo[4,5-c]pyridazin-6-yl]-5-(2H-1,2,3-triazol-2-yl)phenol], with ≤ 100 nM. As for `CC1(C)CC(n2nnc3cc(-c4ccc(-c5ncco5)cc4O)nnc32)CC(C)(C)N1` [Cpd 111, 5-(1,3-oxazol-2-yl)-2-[3-(2,2,6,6-tetramethylpiperidin-4-yl)-3H-[1,2,3]triazolo[4,5-c]pyridazin-6-yl]phenol], the IC50 was ≤ 100 nM. On to `CC1(C)CC(c2c[nH]c3cc(-c4ccc(-c5cn[nH]c5)cc4O)nnc23)CC(C)(C)N1` [Cpd 31, 5-(1H-pyrazol-4-yl)-2-[7-(2,2,6,6-tetramethylpiperidin-4-yl)-5H-pyrrolo[3,2-c]pyridazin-3-yl]phenol], for which the IC50 is ≤ 100 nM.

For `CC1(C)CC(N2CCc3cc(-c4ccc(-c5cn[nH]c5)c(F)c4F)nnc32)CC(C)(C)N1` [Cpd 32, 3-[2,3-difluoro-4-(1H-pyrazol-4-yl)phenyl]-7-(2,2,6,6-tetramethylpiperidin-4-yl)-6,7-dihydro-5H-pyrrolo[2,3-c]pyridazine], the concentration for half-maximal inhibition (IC50) lay within 100 to 500 nM. `Cn1cc(-c2ccc(-c3cc4nnn(C5CC(C)(C)NC(C)(C)C5)c4nn3)c(O)c2)c(C#N)n1` [Cpd 132, 4-{3-hydroxy-4-[3-(2,2,6,6-tetramethylpiperidin-4-yl)-3H-[1,2,3]triazolo[4,5-c]pyridazin-6-yl]phenyl}-1-methyl-1H-pyrazole-3-carbonitrile] came in with an IC50 of 500 to 1000 nM. Then `CC1(C)CC(n2nnc3cc(-c4ccc(-c5c[nH]nc5C(F)(F)F)cc4O)nnc32)CC(C)(C)N1` [Cpd 139, 2-[3-(2,2,6,6-tetramethylpiperidin-4-yl)-3H-[1,2,3]triazolo[4,5-c]pyridazin-6-yl]-5-[3-(trifluoromethyl)-1H-pyrazol-4-yl]phenol], with 100 to 500 nM; and `CC1(C)CC(n2nnc3cc(-c4ccc(-c5ccncn5)cc4O)nnc32)CC(C)(C)N1` [Cpd 75, 5-(pyrimidin-4-yl)-2-[3-(2,2,6,6-tetramethylpiperidin-4-yl)-3H-[1,2,3]triazolo[4,5-c]pyridazin-6-yl]phenol], with 100 to 500 nM. Then `CC1(C)CC(n2ncc3cc(-c4ccc(-c5cccnc5)cc4O)nnc32)CC(C)(C)N1` [Cpd 166, 5-(pyridin-3-yl)-2-[1-(2,2,6,6-tetramethylpiperidin-4-yl)-1H-pyrazolo[3,4-c]pyridazin-5-yl]phenol], with 100 to 500 nM. Consider `CC1(C)CC(N2CCc3cc(-c4ccc(-c5cn[nH]c5)cc4O)nnc32)CC(C)(C)N1` [Cpd 23, 5-(1H-pyrazol-4-yl)-2-[7-(2,2,6,6-tetramethylpiperidin-4-yl)-6,7-dihydro-5H-pyrrolo[2,3-c]pyridazin-3-yl]phenol], for which the IC50 is ≤ 100 nM. Then `Cn1cc(-c2ccc(-c3cc4nnn(C5CC(C)(C)NC(C)(C)C5)c4nn3)c(O)c2)cn1` [Cpd 39, 5-(1-methyl-1H-pyrazol-4-yl)-2-[3-(2,2,6,6-tetramethylpiperidin-4-yl)-3H-[1,2,3]triazolo[4,5-c]pyridazin-6-yl]phenol], with ≤ 100 nM; and `CC1(C)CC(n2nnc3cc(-c4ccc(-n5cnnc5)cc4O)nnc32)CC(C)(C)N1` [Cpd 64, 2-[3-(2,2,6,6-tetramethylpiperidin-4-yl)-3H-[1,2,3]triazolo[4,5-c]pyridazin-6-yl]-5-(4H-1,2,4-triazol-4-yl)phenol], with 1000 to 3000 nM; and `CC1(C)CC(n2nnc3cc(-c4ccc(-c5c[nH]nn5)cc4O)nnc32)CC(C)(C)N1` [Cpd 112, 2-[3-(2,2,6,6-tetramethylpiperidin-4-yl)-3H-[1,2,3]triazolo[4,5-c]pyridazin-6-yl]-5-(1H-1,2,3-triazol-4-yl)phenol], with ≤ 100 nM. For the molecule `Oc1cc(-c2cn[nH]c2)ccc1-c1cc2[nH]cc(N3CCNCC3)c2nn1` [Cpd 43, 2-[7-(piperazin-1-yl)-5H-pyrrolo[3,2-c]pyridazin-3-yl]-5-(1H-pyrazol-4-yl)phenol], the IC50 was 500 to 1000 nM. As to `CC1(C)CC(n2nnc3cc(-c4ccc(-c5ccnc(C(F)(F)F)c5)cc4O)nnc32)CC(C)(C)N1` [Cpd 74, 2-[3-(2,2,6,6,-tetramethylpiperidin-4-yl)-3H-[1,2,3]triazolo[4,5-c]pyridazin-6-yl]-5-[2-(trifluoromethyl)pyridin-4-yl]phenol], the IC50 was in the range of 100 to 500 nM. For `CC1(C)CC(n2cnc3nc(-c4cc(F)c(-c5cn[nH]c5)cc4F)cnc32)CC(C)(C)N1` [Cpd 2, 5-[2,5-difluoro-4-(1H-pyrazol-4-yl)phenyl]-1-(2,2,6,6-tetramethylpiperidin-4-yl)-1H-imidazo[4,5-b]pyrazine] the value was 100 to 500 nM; for `CC1(C)CC(n2cnc3cc(-c4ncc(-c5cn[nH]c5)cc4O)nnc32)CC(C)(C)N1` [Cpd 141, 5-(1H-pyrazol-4-yl)-2-[7-(2,2,6,6-tetramethylpiperidin-4-yl)-7H-imidazo[4,5-c]pyridazin-3-yl]pyridin-3-ol], ≤ 100 nM; for `CC1(C)CC(n2ccc3nc(-c4ccc(-c5cn[nH]c5)cc4O)cnc32)CC(C)(C)N1` [Cpd 10, 5-(1H-pyrazol-4-yl)-2-[5-(2,2,6,6-tetramethylpiperidin-4-yl)-5H-pyrrolo[2,3-b]pyrazin-2-yl]phenol], ≤ 100 nM. Then `CC1(C)CC(n2nnc3cc(-c4ccc(-c5cc[nH]c5)cc4O)nnc32)CC(C)(C)N1` [Cpd 80, 5-(1H-pyrrol-3-yl)-2-[3-(2,2,6,6-tetramethylpiperidin-4-yl)-3H-[1,2,3]triazolo[4,5-c]pyridazin-6-yl]phenol], with 100 to 500 nM.
